{"source": "patent US10155004B2", "about": "“17-hydroxy-17-pentafluoroethyl-estra-4,9(10)-dien-11-aryl derivatives, method of production thereof and use thereof for the treatment of diseases” (BAYER INTELLECTUAL PROPERTY GMBH, priority 2009, dated 2018)", "key": {"[1]": {"target": "T1, human progesterone receptor B (Homo sapiens, UniProt P06401)", "T1 construct": "expressed in transfected cells; host or cells: SK-N-MC human neuroblastoma cells, stably transfected", "T1 sequence (P06401 1-933)": "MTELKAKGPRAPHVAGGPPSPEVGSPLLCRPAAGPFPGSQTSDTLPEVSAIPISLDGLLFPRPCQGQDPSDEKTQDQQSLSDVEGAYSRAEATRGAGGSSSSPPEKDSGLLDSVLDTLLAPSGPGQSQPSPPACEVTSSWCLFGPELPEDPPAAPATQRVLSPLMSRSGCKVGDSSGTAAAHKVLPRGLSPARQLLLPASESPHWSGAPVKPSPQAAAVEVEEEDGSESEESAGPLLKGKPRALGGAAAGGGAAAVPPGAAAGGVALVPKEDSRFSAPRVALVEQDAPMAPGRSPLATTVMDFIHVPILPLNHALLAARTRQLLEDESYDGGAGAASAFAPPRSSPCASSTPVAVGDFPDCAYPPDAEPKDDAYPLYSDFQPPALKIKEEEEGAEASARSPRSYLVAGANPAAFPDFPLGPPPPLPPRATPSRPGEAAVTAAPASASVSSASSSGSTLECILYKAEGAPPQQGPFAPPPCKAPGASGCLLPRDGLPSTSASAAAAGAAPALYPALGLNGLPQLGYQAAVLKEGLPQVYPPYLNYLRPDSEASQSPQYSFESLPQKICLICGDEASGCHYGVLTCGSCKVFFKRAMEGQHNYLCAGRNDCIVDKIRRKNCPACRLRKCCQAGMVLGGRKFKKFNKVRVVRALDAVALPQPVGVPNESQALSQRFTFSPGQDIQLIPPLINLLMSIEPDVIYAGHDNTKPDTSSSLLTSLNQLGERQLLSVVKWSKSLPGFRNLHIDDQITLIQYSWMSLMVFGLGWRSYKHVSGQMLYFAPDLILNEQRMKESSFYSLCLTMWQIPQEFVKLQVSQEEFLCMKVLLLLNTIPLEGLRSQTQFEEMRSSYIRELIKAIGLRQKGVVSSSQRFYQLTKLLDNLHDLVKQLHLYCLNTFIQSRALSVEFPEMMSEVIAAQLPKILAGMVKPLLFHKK", "test": "Progesterone receptor-antagonistic action in stably transfected SK-N-MC cells, MTV-LUC reporter (PR-B)", "format": "cell-based", "conditions": "antagonism of 0.1 nmol/l promegestone, 24 hours, LUC reporter, read-out: Progesterone receptor B (PR-B) Potency IC50", "protocol": "(§1) EXAMPLE 16 PROGESTERONE RECEPTOR-ANTAGONISTIC ACTION IN STABLE TRANSFECTANTS OF HUMAN NEUROBLASTOMA CELLS (SK-N-MC CELLS) WITH THE HUMAN PROGESTERONE A OR PROGESTERONE B RECEPTOR AND AN MTV-LUC REPORTER CONSTRUCT\n(§2) SK-N-MC cells (human neuroblastoma cells), which have been stably transfected with plasmids, which express the human progesterone receptor B (pRChPR-B-neo) or the human progesterone receptor A (pRChPR-A-neo) and a reporter construct (pMMTV-LUC), were incubated for 24 hours either in the absence (negative control) or in the presence of increasing amounts of the respective test compound (0.01 nmol/l, 0.1 nmol/l 1 nmol/l, 10 nmol/l, 100 nmol/l and 1 μmol/l), in order to determine the agonistic efficacy. As positive control of reporter gene induction, the cells were treated with the synthetic gestagen promegestone (0.01 nmol/l, 0.1 nmol/l, 1 nmol/l, 10 nmol/l, 100 nmol/l and 1 μmol/l). For determination of the antagonistic activity, the cells were treated with 0.1 nmol/1 promegestone and additionally with increasing amounts of the respective test compound (0.01 nmol/l, 0.1 nmol/l, 1 nmol/l, 10 nmol/l, 100 nmol/l and 1 μmol/l). The activity of the LUC reporter gene (LUC=luciferase) was determined in the cell lysates and was measured as RLU (relative light units). All measured values are given as percentage efficacy and as EC50 or IC50 concentrations.\n(§3) 11β-(4-Acetylphenyl)-20,20,21,21,21-pentafluoro-17-hydroxy-19-nor-17α-pregna-4,9-dien-3-one and 20,20,21,21,21-pentafluoro-17-hydroxy-11β-[4-(hydroxyacetyl)phenyl]-19-nor-17α-pregna-4,9-dien-3-one, very potent and therefore preferred examples from WO98/34947 and WO2008/058767, were tested as comparative compounds along with the test compound."}, "[2]": {"test": "Metabolic stability in human liver microsomes (HLM)", "format": "in vitro ADME", "conditions": "from HLM half-life, well-stirred model, phase I reactions; 1 μM, 0.5 mg/ml protein", "protocol": "EXAMPLE 18 METABOLIC STABILITY OF (11β,17β)-17-HYDROXY-11[4-(METHYLSULPHONYL)PHENYL]-17-(PENTAFLUOROETHYL)ESTRA-4,9-DIEN-3-ONE AND (11β,17β)-17-HYDROXY-11-[4′-(METHYLSULPHONYL)-BIPHENYL-4-YL]-17-(PENTAFLUOROETHYL)ESTRA-4,9-DIEN-3-ONE IN HUMAN LIVER MICROSOMES (HLM)\nIsolated human liver microsomes (HLM) were used for assessing the metabolic stability of compounds of general formula I.\nIncubations were carried out with 2.4 ml of HLM solution (0.5 mg/ml protein content), 30 μl of the test compound (final concentration 1 μM) and 0.6 ml of the cofactor mixture (=NADPH-generating system of 3 IU glucose-6-phosphate dehydrogenase, 14.6 mg glucose-6-phosphate, 1.2 mg NADP) at 37° C. in 100 mM phosphate buffer at pH 7.4. Samples are taken at 6 time points (2-60 min), precipitated with an equal volume of methanol and the recovery of the test substances used in the supernatant is determined by LC-MS/MS analysis. The intrinsic clearance of the substance in the liver microsome preparation can be calculated from the half-life found for the breakdown of the substance. Based on this, together with various physiological characteristics according to the well-stirred model, it is then possible to predict a (metabolic) in vivo clearance with respect to phase I reactions. […]"}, "[3]": {"target": "T2, human progesterone receptor A (Homo sapiens, UniProt P06401)", "T2 construct": "expressed in transfected cells; host or cells: SK-N-MC human neuroblastoma cells, stably transfected", "T2 sequence (P06401 1-769 isoform P06401-2)": "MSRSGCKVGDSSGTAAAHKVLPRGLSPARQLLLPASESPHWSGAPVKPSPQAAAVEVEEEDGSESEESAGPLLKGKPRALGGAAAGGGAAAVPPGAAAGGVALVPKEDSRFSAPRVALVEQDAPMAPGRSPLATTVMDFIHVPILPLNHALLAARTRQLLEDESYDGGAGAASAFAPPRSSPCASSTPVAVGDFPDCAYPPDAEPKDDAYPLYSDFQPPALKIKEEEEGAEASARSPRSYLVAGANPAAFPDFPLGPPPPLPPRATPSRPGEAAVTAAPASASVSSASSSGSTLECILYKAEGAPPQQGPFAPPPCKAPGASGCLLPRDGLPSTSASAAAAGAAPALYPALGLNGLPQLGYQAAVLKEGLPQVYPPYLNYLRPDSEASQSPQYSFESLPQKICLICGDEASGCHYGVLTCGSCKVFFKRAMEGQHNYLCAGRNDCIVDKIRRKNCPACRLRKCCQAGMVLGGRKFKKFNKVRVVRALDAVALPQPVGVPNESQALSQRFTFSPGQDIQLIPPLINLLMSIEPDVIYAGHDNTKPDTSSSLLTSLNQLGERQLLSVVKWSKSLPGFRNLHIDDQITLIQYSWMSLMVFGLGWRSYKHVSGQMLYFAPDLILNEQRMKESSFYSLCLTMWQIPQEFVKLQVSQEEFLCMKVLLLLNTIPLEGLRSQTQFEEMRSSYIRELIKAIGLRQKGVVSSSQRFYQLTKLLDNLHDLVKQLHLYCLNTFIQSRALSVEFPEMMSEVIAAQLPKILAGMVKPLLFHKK", "test": "Progesterone receptor-antagonistic action in stably transfected SK-N-MC cells, MTV-LUC reporter (PR-A)", "format": "cell-based", "conditions": "antagonism of 0.1 nmol/l promegestone, 24 hours, LUC reporter, read-out: Progesterone receptor A (PR-A) Potency IC50", "protocol": "as §1, §2, §3"}}}
{"smiles": "C[C@]12C[C@H](c3ccc(-c4ccc(S(C)(=O)=O)cc4)cc3)C3=C4CCC(=O)C=C4CC[C@H]3[C@@H]1CC[C@@]2(O)C(F)(F)C(F)(F)F", "note": "[Example 10, (11β,17β)-17-hydroxy-11-[4′-(methylsulphonyl)biphenyl-4-yl]-17-(pentafluoroethy)estra-4,9-dien-3-one]", "values": [{"measurement": "IC50", "setting": "[1]", "value": 0.013, "unit": "nM"}, {"measurement": "(metabolic) in vivo clearance in humans predicted", "setting": "[2]", "value": "< 0.17", "unit": "mL/min/kg"}, {"measurement": "IC50", "setting": "[3]", "value": 0.011, "unit": "nM"}]}
